Test results published in article PMC8958505, “Discovery of Potential Neuroprotective Agents against Paclitaxel-Induced Peripheral Neuropathy” (Journal of Medicinal Chemistry, 2022).
Counter-ions that a name gives are not always drawn. Like-named read-outs stand apart in the source and are kept apart here.

Test system: mouse primary DRG neurons
Experiment: Neurite outgrowth assay of DRG neurons (image-based HCS) against paclitaxel-induced neurotoxicity
Type: cell-based
Details: for activation at 1 µM: Mus musculus, DRG neuron; for protective efficacy against paclitaxel-induced neurotoxicity (in words): pretreated, + 50 nM paclitaxel
Procedure: All these 19 compounds were then subjected to the neurite outgrowth assay of dorsal root ganglion (DRG) neurons paired with an image-based HCS to analyze whether they had neuroprotective potential. Quantification of neurite outgrowth under different regimens is shown in Figure 3, wherein DRG neurons incubated in 50 nM paclitaxel could cause 60% reduction in neurite outgrowth compared to the control (no drug treatment). […] Taken together, CN016 is selected as a promising lead for further development.
Primary cortical or DRG cells were fixed with 4% paraformaldehyde for 15 min following compound and paclitaxel treatment. After washing with PBS, the fixed cells were permeabilized with PBS containing 0.05% Triton X-100 for 20 min and then blocked with commercial blocking buffer (#GTX30963; GeneTex, USA) at room temperature for 1 h. Subsequently, the cortical cells were stained for the extending processes and synaptic puncta by using anti-MAP2 (#MBS502140, 1:500; Mybiosource, USA) and anti-synaptophysin (#ab32127, 1:500; Abcam, UK) overnight. DRG cells were stained for the neurite and neuron nucleus by using anti-β III tubulin (#D71G9, 1:600; Cell Signaling, USA) and anti-NeuN monoclonal antibody (#MAB377, 1:400; Millipore, USA) overnight. On the second day, the samples were washed for 30 min with wash buffer and incubated with secondary antibodies (Alexa-488, 647 1:600; Thermo Fisher, USA) and 4 μg/mL Hoechst 33258 (#94403-1ML, 1:100; Merck, USA) at room temperature for 1 h. In the initial experiments of screening the potential neuroprotective compound for CIPN, ImageXpress^Micro (IXM) high-content imaging system (Molecular Devices, USA) driven by MetaXpress software was used. Images of treated cells were automatically acquired by using a 10× objective. Twenty-one images per well were taken in each of three channels (DAPI, FITC, and Cy5) to create a whole view of the entire neural network. The integrity of the neural network was evaluated using TIF images by importing them into MetaXpress software for analysis using the module for multiparameter, such as Neurite Outgrowth, Cell Scoring, and Transfluor. Furthermore, the score of synaptogenesis was analyzed in AcuityXpress software (Molecular Devices, USA).

[1] = Table 1, A: neurite outgrowth (% of control) of test compound 1000 nM + paclitaxel 50 nM, B: paclitaxel 50 nM alone, DRG neurons, read-out: Neuroprotection rate = (A-B)±S.E.M [%]
[2] = supplementary CSV, test compound 1000 nM, read-out: A-B (A: neurite outgrowth (% of control) of test compound (1000 nM) + paclitaxel (50 nM), B: of paclitaxel (50 nM))
[3] = Table S2, test compound 1000 nM + paclitaxel 50 nM minus paclitaxel 50 nM, read-out: Neuroprotection rate = (A-B) ± S.E.M [%]

Row | SMILES | activation at 1 µM [1] | activation at 1 µM [2] | activation at 1 µM [3] | protective efficacy against paclitaxel-induced neurotoxicity (in words) (DRG neurons)
1 | COCCCn1cc(CNc2nc(NC3CCN(CCP(=O)(O)O)CC3)cc(N3CCOCC3)n2)nn1 [CN028, {2-[4-(2-{[1-(3-Methoxy-propyl)-1H-[1,2,3]triazol-4-ylmethyl]-amino}-6-morpholin-4-yl-pyrimidin-4-ylamino)-piperidin-1-yl]-ethyl}-phosphonic Acid Hydrobromide Salt] | -2% | -2% |  | 
2 | NCCOCCn1cc(CNc2nc(NC3CCN(C(=O)CCNC(=O)C4(O)CC(O)C(O)C(O)C4)CC3)cc(N3CCOCC3)n2)nn1 (stereo not shown) [CN008, 1,3,4,5-Tetrahydroxy-cyclohexanecarboxylic Acid (3-{4-[2-({1-[2-(2-Amino-ethoxy)-ethyl]-1H-[1,2,3]triazol-4-ylmethyl}-amino)-6-morpholin-4-yl-pyrimidin-4-ylamino]-piperidin-1-yl}-3-oxo-propyl)-amide Hydrochloride Salt] |  | 4% | 4 ± 1.44% | 
3 | CCOP(=O)(CCN1CCC(Nc2cc(N3CCOCC3)nc(NCc3cn(CCCOCCC(=O)OC)nn3)n2)CC1)OCC [CN015, 3-(3-{4-[(4-{1-[2-(Diethoxy-phosphoryl)-ethyl]-piperidin-4-ylamino}-6-morpholin-4-yl-pyrimidin-2-ylamino)-methyl]-[1,2,3]triazol-1-yl}-propoxy)-propionic Acid Methyl Ester] |  | 3% | 3 ± 1.11% | 
4 | CCOP(=O)(CCN1CCC(Nc2cc(N3CCOCC3)nc(NCc3ccc(CCO)cc3)n2)CC1)OCC [CN018, Diethyl(2-(4-((2-((4-(2-hydroxyethyl)benzyl)amino)-6-morpholinopyrimidin-4-yl)amino)piperidin-1-yl)ethyl)phosphonate] |  | 3% | 3 ± 2.2% | inactive
5 | COC(=O)CCOCCCn1cc(CNc2nc(NC3CCN(Cc4ccccc4)CC3)cc(N3CCOCC3)n2)nn1 [CN002, 3-[3-(4-{[4-(1-Benzyl-piperidin-4-ylamino)-6-morpholin-4-yl-pyrimidin-2-ylamino]-methyl}-[1,2,3]triazol-1-yl)-propoxy]-propionic Acid Methyl Ester] |  | -4% | -4 ± 0.81% | 
6 | NCCCn1cc(CNc2nc(NC3CCN(C(=O)CCNC(=O)C4(O)CC(O)C(O)C(O)C4)CC3)cc(N3CCOCC3)n2)nn1 (stereo not shown) [CN006, 1,3,4,5-Tetrahydroxy-cyclohexanecarboxylic Acid {3-[4-(2-{[1-(3-Amino-propyl)-1H-[1,2,3]triazol-4-ylmethyl]-amino}-6-morpholin-4-yl-pyrimidin-4-ylamino)-piperidin-1-yl]-3-oxo-propyl}-amide Hydrochloride Salt] |  | 4% | 4 ± 1.44% | 
7 | O=C(O)Cn1cc(CNc2nc(NC3CCN(Cc4ccccc4)CC3)cc(N3CCOCC3)n2)nn1 [CN001, (4-{[4-(1-Benzyl-piperidin-4-ylamino)-6-morpholin-4-yl-pyrimidin-2-ylamino]-methyl}-[1,2,3]triazol-1-yl)-acetic Acid Hydrochloride Salt] |  | -6% | -6 ± 0.3% | 
8 | CCOP(=O)(CCN1CCC(Nc2cc(N3CCOCC3)nc(NCc3cn(CCC(C)O)nn3)n2)CC1)OCC (stereo not shown) [CN014, {2-[4-(2-{[1-(3-Hydroxy-butyl)-1H-[1,2,3]triazol-4-ylmethyl]-amino}-6-morpholin-4-yl-pyrimidin-4-ylamino)-piperidin-1-yl]-ethyl}-phosphonic Acid Diethyl Ester] |  | 9% | 9 ± 2% | exhibited protective efficacy
9 | CC(O)Cn1cc(CNc2nc(NC3CCN(CCP(=O)(O)O)CC3)cc(N3CCOCC3)n2)nn1 (stereo not shown) [CN025, {2-[4-(2-{[1-(2-Hydroxy-propyl)-1H-[1,2,3]triazol-4-ylmethyl]-amino}-6-morpholin-4-yl-pyrimidin-4-ylamino)-piperidin-1-yl]-ethyl}-phosphonic Acid Hydrobromide Salt] | 4 ± 0.63% | 4% |  | 
10 | O=P(O)(O)CCN1CCC(Nc2cc(N3CCOCC3)nc(NCc3cn(CCCCO)nn3)n2)CC1 [CN021, {2-[4-(2-{[1-(4-Hydroxy-butyl)-1H-[1,2,3]triazol-4-ylmethyl]-amino}-6-morpholin-4-yl-pyrimidin-4-ylamino)-piperidin-1-yl]-ethyl}-phosphonic Acid Hydrobromide Salt] | 8 to 11% | 11% |  | 
11 | CC(O)CCn1cc(CNc2nc(NC3CCN(CCP(=O)(O)O)CC3)cc(N3CCOCC3)n2)nn1 (stereo not shown) [CN026, {2-[4-(2-{[1-(3-Hydroxy-butyl)-1H-[1,2,3]triazol-4-ylmethyl]-amino}-6-morpholin-4-yl-pyrimidin-4-ylamino)-piperidin-1-yl]-ethyl}-phosphonic Acid Hydrobromide Salt] | 11 ± 1.48% | 11% |  | 
12 | CCOP(=O)(CCN1CCC(Nc2cc(N3CCOCC3)nc(NCc3cn(CCCO)nn3)n2)CC1)OCC [CN012, {2-[4-(2-{[1-(3-Hydroxy-propyl)-1H-[1,2,3]triazol-4-ylmethyl]-amino}-6-morpholin-4-yl-pyrimidin-4-ylamino)-piperidin-1-yl]-ethyl}-phosphonic Acid Diethyl Ester] | 12 ± 1% | 9% | 9 ± 1% | exhibited protective efficacy
13 | COC(=O)CCN1CCC(Nc2cc(N3CCOCC3)nc(NCc3cn(CCCO)nn3)n2)CC1 [CN009, 3-[4-(2-{[1-(3-Hydroxy-propyl)-1H-[1,2,3]triazol-4-ylmethyl]-amino}-6-morpholin-4-yl-pyrimidin-4-ylamino)-piperidin-1-yl]-propionic Acid Methyl Ester] |  | 15% | 15 ± 1.28% | exhibited protective efficacy
14 | OCCCn1cc(CNc2nc(NC3CCN(Cc4ccccc4)CC3)cc(N3CCOCC3)n2)nn1 [CN004, 3-(4-{[4-(1-Benzyl-piperidin-4-ylamino)-6-morpholin-4-yl-pyrimidin-2-ylamino]-methyl}-[1,2,3]triazol-1-yl)-propan-1-ol] | -1 ± 3.2% | 1% | 1 ± 3.2% | 
15 | COC(=O)CCOCCCn1cc(CNc2nc(NC3CCN(Cc4ccc5ccccc5c4)CC3)cc(N3CCOCC3)n2)nn1 [CN005, 3-[3-(4-{[4-Morpholin-4-yl-6-(1-naphthalen-2-ylmethyl-piperidin-4-ylamino)-pyrimidin-2-ylamino]-methyl}-[1,2,3]triazol-1-yl)-propoxy]-propionic Acid Methyl Ester] |  | -3% | -3 ± 0.41% | 
16 | CCOP(=O)(CCN1CCC(Nc2cc(N3CCOCC3)nc(NCc3cn(CCC(C)(C)O)nn3)n2)CC1)OCC [CN013, {2-[4-(2-{[1-(3-Hydroxy-3-methyl-butyl)-1H-[1,2,3]triazol-4-ylmethyl]-amino}-6-morpholin-4-yl-pyrimidin-4-ylamino)-piperidin-1-yl]-ethyl}-phosphonic Acid Diethyl Ester] |  | 6% | 6 ± 1.17% | 
17 | O=P(O)(O)CCN1CCC(Nc2cc(N3CCS(=O)(=O)CC3)nc(NCc3cn(CCCO)nn3)n2)CC1 [CN024, {2-[4-(6-(1,1-Dioxo-1l6-thiomorpholin-4-yl)-2-{[1-(3-hydroxy-propyl)-1H-[1,2,3]triazol-4-ylmethyl]-amino}-pyrimidin-4-ylamino)-piperidin-1-yl]-ethyl}-phosphonic Acid Hydrobromide Salt] | 7 ± 0.84% | 7% |  | 
